Measurements as given in patent US20220389001A1, “ATF6 MODULATORS AND USES THEREOF” (Praxis Biotech LLC, priority 2019, published 2022).

How the values were obtained:
[1] = tested on: ATF6; assay: ERSE ATF6-luciferase assay in absence of ER stress (U2-OS ATF6 TRE-luciferase reporter cells); assay type: cell-based, Human; conditions: 8 hr, normalized to maximal activation with Tg; for ATF6 activity @ 1 μM- No Tg [%]: 1 μM test compound; for ATF6 activity @ 10 μM- No Tg [%]: 10 μM test compound
Protocol: (§1) To understand how exemplary compounds of the invention modulate the activity of ATF6 in absence or presence of endoplasmic reticulum (ER) stress, a Human bone osteosarcoma (U2-OS)-based TRE-luciferase reporter stable cell line was generated to determine the modulation of transcription of ATF6 target genes.
(§2) U2-OS cells were obtained from the American Type Culture Collection (ATCC HTB-96, ATCC Manassas, Va.) and were cultured with growing medium containing Dulbecco's Modified Eagle's Medium (DMEM) (Cat. No.: SH30023.02, HyClone) supplemented with fetal bovine serum (FBS) 10% (Cat. No.: 16000044, Gibco) and 1% penicillin-streptomycin antibiotic cocktail (Cat. No.: SV30010, Hyclone).
(§3) Cignal Lenti ATF6 luc reporter (Qiagen #CLS-6031L) was used to produce a stable cell line in U2-OS cells (U2-OS ATF6 TRE-luciferase reporter). The lenti ATF6 reporter is a preparation of replication incompetent, VSV-g pseudotyped lentivirus particles expressing the firefly luciferase gene under the control of a minimal (m)CMV promoter and tandem repeats of the ATF6 transcriptional response element (TRE). The number of response elements as well as the intervening sequence between response elements has been experimentally optimized to maximize the signal to noise ratio.
(§4) Exemplary compounds of the invention and reference compounds were prepared from powder as 10 mM stock solutions in dimethyl sulfoxide (DMSO; Cat. No. #D2650, Sigma Aldrich) and stored at −80° C. in presence of N2 neutral atmosphere.
(§5) For the primary screening, 40,000 U2-OS ATF6 TRE-luciferase reporter cells were plated in poly-D-lysine (Cat. No.: P2636, Sigma) pre-coated white 96-well plates (Thermo Scientific Nunc #136101) with 100 μL of growing medium. Cells were incubated in humidified chambers for 24 hr.
For testing exemplary compounds in absence of ER-stress, cells were treated for 8 hr with 100 μL growing medium containing either vehicle (DMSO), 1 or 10 μM test compound or 0.1 μM Tg. The final concentration of DMSO in each well was kept at 0.3%. Plates were incubated in humidified chambers.
After 8 hr of incubation, plates were cooled down to room temperature for 10 min prior to luciferase assays. Luciferase reactions were performed as above. Luminescence was read by integration of 1 s with a gain of 110 in a Synergy 4 Microplate reader. All measurements were carried out in triplicate.
The average activity determined from the wells containing vehicle only (DMSO, 0% of ATF6 activity) was used as blank and subtracted from the rest of measurements. The percentage of modulation of exemplary compound was calculated by normalizing values to potential maximal activation with Tg.
ATF6 activities of exemplary compounds at 1 and 10 μM in absence of Tg-induced ER stress in the U2-OS ATF6 TRE-luciferase reporter cells were determined and are shown in Table 3.

[2] = tested on: ATF6; assay: ERSE ATF6-luciferase assay in presence of Tg-induced ER stress (U2-OS ATF6 TRE-luciferase reporter cells); assay type: cell-based, Human; conditions: Tg only = 100%; for ATF6 activity @ 1 μM [%] / activity at 1 µM: 1 μM test compound; for ATF6 activity @ 1 μM [%] / ATF6 activity @ 10 μM [%]: 8 hr; for ATF6 activity @ 10 μM [%] / activity at 10 µM: 10 μM test compound; for activity at 1 µM / activity at 10 µM: Homo sapiens, U2OS, 8 h
Protocol: as §1, §2, §3, §4, §5
For testing exemplary compounds in presence of ER-stress, cells were pre-treated for 30 min with 50 μL growing medium containing either vehicle (DMSO), 1 or 10 μM test compound. After this pre-incubation, 50 μL of a solution containing 0.2 μM of the ER stress-inducer thapsigargin (Tg) was added to the appropriate wells. The Tg solution also contains vehicle or test compounds at 1 or 10 μM as indicated. The final concentration of DMSO in each well was kept at 0.3%. Plates were incubated for 8 hr in humidified chambers.
After the 8 hr incubation, plates were cooled down to room temperature for 10 min prior to the luciferase assays. Luciferase reactions were performed using Luciferase Assay System (Cat. No.: E4550, Promega). Briefly, each well was washed with 100 μl of PBS 1× and, then, 20 μl of lysis reagent was added into each well. Plates were shaken for 10 min and, then, 50 μl of Luciferase Assay Reagent was added to each well. Luminescence was determined by integration of 1 s with a gain of 110 in a Synergy 4 Microplate reader. All measurements were carried out in triplicate.
The average activity determined from the wells containing vehicle only (DMSO, 0% of ATF6 activity) was used as blank and subtracted from the rest of measurements. The average activity determined from the wells containing Tg only was used as 100% of ATF6 activity. The percentage of modulation of exemplary compounds was calculated by normalizing values to potential maximal activation with Tg.
ATF6 activities of exemplary compounds at 1 and 10 μM in presence Tg-induced ER stress tested in the U2-OS ATF6 TRE-luciferase reporter cells were determined and are shown in Table 2.

Structure (SMILES)	ATF6 activity @ 1 μM- No Tg [%] [1]	ATF6 activity @ 10 μM- No Tg [%] [1]	ATF6 activity @ 1 μM [%] [2]	ATF6 activity @ 10 μM [%] [2]	activity at 1 µM [2] [%]	activity at 10 µM [2] [%]
CC(c1c(F)cccc1Cl)n1cc(NC(=O)c2cc(-c3ccco3)on2)cn1 (single isomer, unassigned) [Compound 1-14, N-(1-(1-(2-chloro-6-fluorophenyl)ethyl)-1H-pyrazol-4-yl)-5-(furan-2-yl)isoxazole-3-carboxamide]	+ (+ refers to 0% < % activity < 25% at 1 or 10 μM test compound)	+ (+ refers to 0% < % activity < 25% at 1 or 10 μM test compound)	+++ (+++ refers to >150% at 1 or 10 μM test compound)	+++ (+++ refers to >150% at 1 or 10 μM test compound)	–	–
CC(c1c(F)cccc1Cl)n1cc(NC(=O)c2cc(-c3ccco3)on2)cn1 (single isomer, unassigned) [Compound 1-15, N-(1-(1-(2-chloro-6-fluorophenyl)ethyl)-1H-pyrazol-4-yl)-5-(furan-2-yl)isoxazole-3-carboxamide]	+ (+ refers to 0% < % activity < 25% at 1 or 10 μM test compound)	+ (+ refers to 0% < % activity < 25% at 1 or 10 μM test compound)	+ (+ refers to 100% < % activity < 125% at 1 or 10 μM)	+ (+ refers to 100% < % activity < 125% at 1 or 10 μM)	–	–
CC(c1ccc(F)cc1F)n1cc(NC(=O)c2cc(-c3ccco3)on2)cn1 (single isomer, unassigned) [Compound 1-16, N-(1-(1-(2,4-difluorophenyl)ethyl)-1H-pyrazol-4-yl)-5-(furan-2-yl)isoxazole-3-carboxamide]	+ (+ refers to 0% < % activity < 25% at 1 or 10 μM test compound)	+ (+ refers to 0% < % activity < 25% at 1 or 10 μM test compound)	–	++ (++ refers to 125% < % activity < 150% at 1 or 10 μM test compound)	100 to 125	–
CC(c1ccc(F)cc1F)n1cc(NC(=O)c2cc(-c3ccco3)on2)cn1 (single isomer, unassigned) [Compound 1-17, N-(1-(1-(2,4-difluorophenyl)ethyl)-1H-pyrazol-4-yl)-5-(furan-2-yl)isoxazole-3-carboxamide]	+ (+ refers to 0% < % activity < 25% at 1 or 10 μM test compound)	+ (+ refers to 0% < % activity < 25% at 1 or 10 μM test compound)	+ (+ refers to 100% < % activity < 125% at 1 or 10 μM)	+ (+ refers to 100% < % activity < 125% at 1 or 10 μM)	–	–
CC(c1ccc(C(F)(F)F)cc1C(F)(F)F)n1cc(NC(=O)c2cc(-c3cnccn3)no2)cn1 (single isomer, unassigned) [Compound 1-25, N-(1-(1-(2,4-bis(trifluoromethyl)phenyl)ethyl)-1H-pyrazol-4-yl)-3-(pyrazin-2-yl)isoxazole-5-carboxamide]	–	–	- (- refers to 75% < % activity < 100% at 1 or 10 μM)	- (- refers to 75% < % activity < 100% at 1 or 10 μM)	–	–
CC(c1ccc(C(F)(F)F)cc1C(F)(F)F)n1cc(NC(=O)c2cc(-c3cnccn3)no2)cn1 (single isomer, unassigned) [Compound 1-26, N-(1-(1-(2,4-bis(trifluoromethyl)phenyl)ethyl)-1H-pyrazol-4-yl)-3-(pyrazin-2-yl)isoxazole-5-carboxamide]	–	–	--- (--- refers to <50% at 1 or 10 μM test compound)	--- (--- refers to <50% at 1 or 10 μM test compound)	–	–
O=C(Nc1cnn(Cc2ccc(C(F)(F)F)cc2C(F)(F)F)c1)c1cc(-c2ccco2)on1 [Ceapin-A7, reference compound]	–	–	--- (--- refers to <50% at 1 or 10 μM test compound)	--- (--- refers to <50% at 1 or 10 μM test compound)	–	–
CC(c1c(Cl)cccc1Cl)n1cc(NC(=O)c2cc(-c3ccco3)on2)cn1 (centres unmarked) [Compound 1-1, N-(1-(1-(2,6-dichlorophenyl)ethyl)-1H-pyrazol-4-yl)-5-(furan-2-yl)isoxazole-3-carboxamide]	+ (+ refers to 0% < % activity < 25% at 1 or 10 μM test compound)	+ (+ refers to 0% < % activity < 25% at 1 or 10 μM test compound)	–	–	–	–
O=C(Nc1cnn(C2CCCc3ccccc32)c1)c1cc(-c2ccco2)on1 (centres unmarked) [Compound 1-3, 5-(furan-2-yl)-N-(1-(1,2,3,4-tetrahydronaphthalen-1-yl)-1H-pyrazol-4-yl)isoxazole-3-carboxamide]	–	–	–	–	100 to 125	125 to 150
CC(c1c(F)cccc1Cl)n1cc(NC(=O)c2cc(-c3ccco3)on2)cn1 (centres unmarked) [Compound 1-4, N-(1-(1-(2-chloro-6-fluorophenyl)ethyl)-1H-pyrazol-4-yl)-5-(furan-2-yl)isoxazole-3-carboxamide]	–	–	–	–	> 150	> 150
CC(c1ccc(F)cc1F)n1cc(NC(=O)c2cc(-c3ccco3)on2)cn1 (centres unmarked) [Compound 1-5, N-(1-(1-(2,4-difluorophenyl)ethyl)-1H-pyrazol-4-yl)-5-(furan-2-yl)isoxazole-3-carboxamide]	–	–	–	–	100 to 125	> 150
CC(c1ccc(F)cc1Cl)n1cc(NC(=O)c2cc(-c3ccco3)on2)cn1 (centres unmarked) [Compound 1-6, N-(1-(1-(2-chloro-4-fluorophenyl)ethyl)-1H-pyrazol-4-yl)-5-(furan-2-yl)isoxazole-3-carboxamide]	–	–	–	–	100 to 125	75 to 100
CC(c1ccc(C(F)(F)F)cc1C(F)(F)F)n1cc(NC(=O)c2cc(-c3cnccn3)no2)cn1 (centres unmarked) [Compound 1-11, N-(1-(1-(2,4-bis(trifluoromethyl)phenyl)ethyl)-1H-pyrazol-4-yl)-3-(pyrazin-2-yl)isoxazole-5-carboxamide]	–	–	–	–	50 to 75	50 to 75
O=C(Nc1cnn(C2CCc3cc(C(F)(F)F)ccc32)c1)c1cc(-c2cnccn2)on1 (centres unmarked) [Compound 1-12, 5-(pyrazin-2-yl)-N-(1-(5-(trifluoromethyl)-2,3-dihydro-1H-inden-1-yl)-1H-pyrazol-4-yl)isoxazole-3-carboxamide]	–	–	–	–	75 to 100	75 to 100
CC(c1c(Cl)cccc1Cl)n1cc(NC(=O)c2cc(-c3cccs3)on2)cn1 (centres unmarked) [Compound 1-13, N-(1-(1-(2,6-dichlorophenyl)ethyl)-1H-pyrazol-4-yl)-5-(thiophen-2-yl)isoxazole-3-carboxamide]	+ (+ refers to 0% < % activity < 25% at 1 or 10 μM test compound)	+ (+ refers to 0% < % activity < 25% at 1 or 10 μM test compound)	–	–	75 to 100	100 to 125
Cc1c(NC(=O)c2cc(-c3ccco3)on2)cnn1C(C)c1c(Cl)cccc1Cl (centres unmarked) [Compound 1-22, N-(1-(1-(2,6-dichlorophenyl)ethyl)-5-methyl-1H-pyrazol-4-yl)-5-(furan-2-yl)isoxazole-3-carboxamide]	+ (+ refers to 0% < % activity < 25% at 1 or 10 μM test compound)	+ (+ refers to 0% < % activity < 25% at 1 or 10 μM test compound)	–	–	75 to 100	100 to 125
